According to US20120142596A1, “AGENT FOR STIMULATING MOBILIZATION OF ENDOTHELIAL PROGENITOR CELLS” (priority 2009, published 2012):

Experiments:
[1] = tested on: endothelial progenitor cells; test: EPC mobilization to peripheral blood after intravenous administration (EPC colony count); format: in vivo, New Zealand white rabbits; conditions: rabbit, 5 nmole/kg i.v. twice (0 and 24 h), blood 3 days after first injection, 2 weeks culture, vs PBS control
Method: Ketamine hydrochloride (50 mg/ml Yuhan, Korea) and Rompun (xylazine hydrochloride, 23.32 mg/ml Bayer Korea) were mixed at a ratio of 2:1, and then 900 μl of the mixture (600 μl of ketamine hydrochloride and 300 μl of Rompun) was injected intramuscularly into New Zealand white rabbits (male, 2.5 kg, n=3). 10 minutes after the intramuscular injection, the same anesthetic (200 μl of ketamine hydrochloride and 100 μl of Rompun) was injected intravenously into the ear vein of each rabbit to completely anesthetize the rabbits. Then, 5 nmole/kg of SP was dissolved in physiological saline solution, and 1 ml of the solution was administered slowly into the ear vein of one rabbit group. As a control, 1 ml of 1×PBS was administered into the ear vein of another rabbit group. 24 hours after the administration, the same amount of each of SP and 1×PBS was injected once more.
3 days after the first injection, peripheral blood was collected from the ear blood vessels of the rabbits, and 10 ml of the collected blood was two-fold diluted in PBS, and then carefully placed on Ficoll contained in a tube (Ficoll: peripheral blood=1:1 v/v). Next, the blood dilution was centrifuged at 2200 rpm for 25 minutes. As a result, a red blood cell (RBC) layer, a ficoll layer, a mononuclear cell layer and a plasma layer, from bottom to top, were formed. […]

EPCs [2] = test: Immunohistochemical staining of cells cultured from peripheral blood with EPC markers CD34 and UEA; format: cell-based, New Zealand white rabbits; conditions: cells cultured from peripheral blood after intravenous SP, fluorescence microscopy
Method: In order to examine the presence of EPCs in peripheral blood using the EPC markers CD34 and UEA, EPCs (2×10^4 cells/well) that have been isolated and cultured from the above blood were incubated on cover slips for CD34 test and UEA test, respectively. After incubation in a 5% CO2 incubator at 37° C. for 24 hours, the cells were washed with PBS. Then, the cells were fixed with 3.7% paraformaldehyde and washed again with PBS.
The washed cells were blocked with 20% goat serum and treated with anti-CD 34 antibody at room temperature for 1 hour. Then, the cells were washed again with PBS and treated with FITC-conjugated anti-mouse IgG at room temperature for 1 hour. To remove excess of antibodies, the cells were washed with PBS, counterstained with DAPI, and then mounted.
The washed cells were blocked with 20% goat serum and treated with UEA-biotin at room temperature for 1 hour. Then, the cells were washed again with PBS and treated with streptavidin-FITC at room temperature for 1 hour. The cells were washed with PBS, counterstained with DAPI, and then mounted.
For negative control in immune fluorescence staining, cultured cells were treated with only secondary antibody, and the expression thereof was observed (FIG. 2C).

EPCs [3] = test: Ability to form tubes in vitro on Matrigel of EPCs cultured from blood after SP; format: cell-based, New Zealand white rabbits; conditions: EPCs from peripheral blood after intravenous SP, 12 hours
Method: In order to examine the blood vessel-forming ability of the EPCs that have been isolated and cultured from the blood, the cells were cultured on Matrigel (BD). For this purpose, 200 μl of Matrigel was added to each well of a 96-well plate and incubated at 37° C. for 30 minutes. The cells were added to each well containing Matrigel at a density of 2×10^4 and cultured for 12 hours. When mesenchymal stem cells (MSCs) were cultured in the same manner as described above, colonies were formed as shown in FIG. 4B.

[4] = tested on: endothelial progenitor cells; test: EPC CFU in bone marrow aspirate after intra-bone marrow administration; format: in vivo, New Zealand white rabbits; conditions: rabbit, intra-bone marrow injection, bone marrow aspirate 24 hours after injection, 1 week culture; for increase in amount of mobilized EPCs (CFU) compared to negative control group: SP 4 nmole/kg, G-CSF 2.5 μg/kg
Method: Ketamine hydrochloride (50 mg/ml Yuhan, Korea) and Rompun (xylazine hydrochloride, 23.32 mg/ml Bayer Korea) were mixed at a ratio of 2:1, and then 900 μl of the mixture (600 μl of ketamine hydrochloride and 300 μl of Rompun) was injected intramuscularly into New Zealand white rabbits (male, 2.5 kg, n=4). 5 minutes after the intramuscular injection, the same anesthetic (200 μl of ketamine hydrochloride and 100 μl of Rompun) was injected intravenously into the ear of each rabbit to completely anesthetize the rabbits.
SP (Sigma, 4 nmole/kg in saline) was injected into the right iliac crest of one rabbit group at an injection volume of 0.1 ml using a 18G spinal needle.
As a negative control, 1×PBS was injected into the left iliac crest of another rabbit group at an injection volume of 0.1 ml using a 18G spinal needle. As a positive control, G-CSF (CJ Pharma Leukokine Inj. 150; 2.5 μg/kg) was injected into the right iliac crest at an injection volume of 0.1 ml using a 18G spinal needle.
24 hours after the injection, 4 ml of a bone marrow aspirate was isolated from the bone marrow, two-fold diluted in PBS, and then carefully placed on Ficoll (GE Health care) contained in a tube (Ficoll: bone marrow aspirate=1:1 v/v). Then, the cell dilution was centrifuged at 2200 rpm for 25 minutes. As a result, a red blood cell layer, a ficoll layer, a mononuclear cell layer and a plasma layer, from bottom to top, were formed. After removing the plasma layer, only the mononuclear cell layer was separated and transferred into a new tube. 30 ml of PBS was added to the obtained mononuclear cell layer and centrifuged again (washing step).
The isolated cells were seeded on a 100-mm dish (Falcon) coated with fibronectin and were cultured in EGM-2 (Endothelial growth medium-2, Lonza) for 1 week (5% CO2 and 37° C.). After the culture, the CFU of the cells was measured and compared with those of the group injected with PBS and the group injected with the positive control G-CSF.

[5] = tested on: endothelial progenitor cells; test: Comparison of EPC colony formation in peripheral blood after intravenous administration of SP and G-CSF; format: in vivo, New Zealand white rabbits; conditions: rabbit
Method: (§1) According to the same method described in Example 1-(1), 0.1 ml of SP was administered to one rabbit group (New Zealand white rabbits, male, 2.5 kg, n=3), and 0.1 ml of G-CSF (CJ Pharma, Leukokine inj. 150; 2.5 μg/kg) as a positive control was administered to another rabbit group (New Zealand white rabbits, male, 2.5 kg, n=3). 1, 2 and 3 days after the administration, 5-15 ml of peripheral blood was isolated from each animal group. The isolated blood was two-fold diluted in PBS and carefully placed on Ficoll contained in a tube (Ficoll: peripheral blood=1:1 v/v). Then, the cell dilution was centrifuged at 2200 rpm for 25 minutes. The uppermost plasma layer was removed, and only the mononuclear cell layer was separated from the tube and transferred into a new tube. 30 ml of PBS was added to the obtained mononuclear cell layer and centrifuged at 1500 rpm for 5 minutes (washing step). The cells were suspended in EGM-2 (endothelial growth medium-2, Lonza), and the suspended cells were seeded on a 100-mm dish (Falcon) coated with fibronectin and were cultured in EGM-2 (endothelial growth medium-2, Lonza) for 2 weeks (5% CO2 and 37° C.). After the culture, the produced colonies were stained with toluidine blue and counted.

[6] = tested on: endothelial progenitor cells; test: Comparison of EPC colony formation in peripheral blood after intra-bone marrow administration of SP and G-CSF; format: in vivo, New Zealand white rabbits; conditions: rabbit, intra-bone marrow administration, 1, 2 and 3 days, compared to G-CSF
Method: as §1, with “2-(2),” for “1-(1),”

[7] = tested on: inflammatory cells (neutrophils, eosinophils and monocytes); test: Complete blood cell count of peripheral blood after intra-bone marrow administration; format: in vivo, New Zealand white rabbits; conditions: rabbit, intra-bone marrow administration, 1, 2 and 3 days
[8] = tested on: inflammatory cells (neutrophils and monocytes); test: Complete blood cell count of peripheral blood after intravenous administration; format: in vivo, New Zealand white rabbits; conditions: rabbit, intravenous administration, 1, 2 and 3 days, vs PBS control
Method: 1 ml of each of the peripheral bloods obtained 1, 2 and 3 days after intravenous administration of SP and G-CSF was placed in an EDTA-containing vial and mixed well to prevent clotting. In the experiment for isolating EPCs from blood cells, the complete blood cell counting of each blood was performed by Royal ARC (Korea) under the same conditions for each blood.

Molecule | amount of EPCs in peripheral blood (colonies) [1] | presence of EPCs in peripheral blood by EPC markers CD34 and UEA (EPCs [2]) | ability to form tubes in vitro (EPCs [3]) | increase in amount of mobilized EPCs (CFU) compared to group administered with positive control G-CSF [4] | increase in amount of mobilized EPCs (CFU) compared to negative control group [4] | amount of EPCs in peripheral blood over 1, 2 and 3 days ([5]; days 1-3) | effect of stimulating EPC mobilization (EPC colonies in peripheral blood) [6] | inflammatory cells (neutrophils, eosinophils and monocytes) in peripheral blood [7] | EPCs in peripheral blood after the second day ([5]; after the second day) | EPCs in peripheral blood at the first day ([5]; day 1) | inflammatory cells (neutrophils and monocytes) in peripheral blood [8]
Substance-P [SP] | significantly increased | contained a large amount of EPCs | had the ability to form blood vessels | about 3 fold | 10-12 fold | continuously increased | excellent effect of stimulating EPC mobilization compared to G-CSF | without causing side effects such as inflammation | – | – | –
G-CSF: positive control, CJ Pharma Leukokine Inj. 150; known EPC mobilization factor (protein, UniProt P09919 31-207, looked up) Granulocyte …: TPLGPASSLPQSFLLKCLEQVRKIQGDGAALQEKLVSECATYKLCHPEELVLLGHSLGIPWAPLSSCPSQALQLAGCLSQLHSGLFLYQGLLQALEGISPELGPTLDTLQLDVADFATTIWQQMEELGMAPALQPTQGAMPAFASAFQRRAGGVLVASHLQSFLEVSYRVLRHLAQP | – | – | – | – | about 4 fold | – | – | significantly increased | no EPCs were found | temporarily increased | significantly increased
